Experimental data reported in US20190282492A1, “COSMETIC COMPOSITIONS FOR SKIN REPARATION” (Natura Cosméticos S.A., priority 2016, published 2019).

How the values were obtained:
Type in all cases: cell-based
FGF-2 = assay: Quantification of FGF-2 growth factor by flow cytometry; conditions: in comparison to the negative control
Description: (§1) In another aspect, this invention also refers to an in vitro method of assessing skin repair, that is suitable for studying a variety of active ingredients, comprised of the following steps: • Step 1—Initial Indication: quantification of the FGF-2 growth factor through the flow cytometry technique; • Step 2—Inflammation: quantification of inflammatory cytokines (IL-1B, IL-6, IL-8, IL-10, IL-12 p70) through the flow cytometry technique; • Step 3—Cell proliferation and migration: • Cell proliferation through the Neutral Red detection method; • Cell migration through the ECIS and Scratch method; • Step 4—Remodeling and Resolution • Quantification of matrix metalloproteinase MMP-13 through the Enzyme-Linked Immunosorbent Assay (ELISA) technique; • Determination of collagenase/gelatinase enzyme activity (MMP-1 and MMP-3) and elastase (MMP-1 2) through the enzyme inhibition assay.
(§2) All the tests were conducted in triplicate, with experiments repeated at least twice, using negative control groups (no stimulation with active ingredients) and positive control groups (stimulated with molecules modulating the marker to be assayed). […]

IL-8 = assay: Quantification of inflammatory cytokines by flow cytometry (IL-8); conditions: in terms of negative control
Description: as §1, §2

IL-10 = assay: Quantification of inflammatory cytokines by flow cytometry (IL-10); conditions: in terms of negative control
Description: as §1, §2

[1] = Cell proliferation, Neutral Red detection method; conditions: compared to the untreated control after 48 hours of treatment
Description: as §1, §2
as §1, with “As a result,” for “In another aspect,”, “project encompassed the following” for “invention also refers to an”, “assays:” for “method of assessing skin repair, that is suitable for studying a variety of active ingredients, comprised of the following steps:”, “FGF2” for “FGF-2”, “assay. […]” for “assay.”

MMP-13 = assay: Quantification of MMP-13 by ELISA; conditions: compared to the untreated control
Description: as §1, §2
as §1, with “As a result,” for “In another aspect,”, “project encompassed the following” for “invention also refers to an”, “assays:” for “method of assessing skin repair, that is suitable for studying a variety of active ingredients, comprised of the following steps:”, “FGF2” for “FGF-2”

| Molecule | FGF-2 increase (FGF-2) | IL-8 increase (IL-8) | IL-10 increase (IL-10) [times] | increase in cell proliferation (in words) [1] | MMP-13 quantification, increase (MMP-13) |
| --- | --- | --- | --- | --- | --- |
| madecassoside | up to 115 times | twofold increase | 2.3 | did not present significant increases | threefold increases |
| NC(=O)NC1NC(=O)NC1=O (stereo not drawn) [allantoin] |  |  |  | did not present significant increases | threefold increases |
| papain (protein, UniProt P00784 134-345, looked up, standard (enzyme)) Papain: IPEYVDWRQKGAVTPVKNQGSCGSCWAFSAVVTIEGIIKIRTGNLNEYSEQELLDCDRRSYGCNGGYPWSALQLVAQYGIHYRNTYPYEGVQRYCRSREKGPYAAKTDGVRQVQPYNEGALLYSIANQPVSVVLEAAGKDFQLYRGGIFVGPCGNKVDHAVAAVGYGPNYILIKNSWGTGWGENGYIRIKRGTGNSYGVCGLYTSSFYPVKN |  |  |  | did not present significant increases | threefold increases |
